Results on one compound are retold here after PMC12301034, “Design and Synthesis of Boronic Chalcones with Dual Anticancer and Anti-Inflammatory Activity” (Molecules, 2025).

The IC50 is the concentration that inhibits the measured activity by half.

Data set [1] relates to HCT116 p53^−/− cells. Briefly: SRB cytotoxicity assay on HCT116 p53-/- cells. It counts as cell-based, human. Conditions: Homo sapiens, HCT-116, 48 h of treatment. An excerpt:
The SCC-25 (ATCC® CRL-1628™), Detroit-562 (ATCC® CCL-138™), and THP-1 (ATCC® TIB-202™) cells were purchased from Rio de Janeiro Cell Bank (Duque de Caxias, Brazil), and NOK-si was kindly provided by Prof. Carlos Rossa from the School of Dentistry—UNESP. All the cells were cultivated according to standard conditions. Human colorectal adenocarcinoma HCT116 cell lines (ATCC® CCL-247™) expressing p53 and its p53-null isogenic derivative (HCT116 p53^−/−) were provided by B. Vogelstein (The Johns Hopkins Kimmel Cancer Center, Baltimore, MD, USA).
HCT p53^+/+ and HCT p53^−/− cell lines were seeded in 96-well plates, with a concentration of 5000 cells/well, and allowed to adhere overnight. Afterwards, they were treated with serial dilutions of the compounds for an additional 48 h (compounds were prepared at 30 mM, in DMSO, and tested with a starting concentration of 50μM and 15 μM). Cells passed then through a series of essential steps (fixation with 10% trichloroacetic acid, for 1 h at 4 °C; staining with 0.4% sulforhodamine B (SRB); wash with 1% acetic acid; and solubilization with 10 mM Tris-Base); subsequently, absorbance was measured at 510 nm in a microplate reader (Biotek Instruments Inc., Synergy, MX, USA). IC50 values were determined using GraphPad Prism software, Version 7.0 (La Jolla, CA, USA).

Data set [2] deals with IL-1β. The experiment in a line: Anti-inflammatory assay, IL-1β in LPS-stimulated THP-1 cells (CBA). In kind it is cell-based, human. As to conditions: 2 and 4 µg/mL, 24 h. How it is done: For this assay, THP-1 (BCRJ cód. 0234) cells were cultured in Roswell Park Memorial Institute (RPMI-1640, Sigma-Aldrich; Saint Louis, MO, USA) media supplemented with 2 mM L-glutamine, 1 mM sodium pyruvate, 1.50 g/L of sodium bicarbonate, and 10% fetal bovine serum. For obtaining Macrophage-like cells, 250,000 cells per well were plated in a 24-well cell culture plate. A total of 20 ng/mL of Forbol 12-miristato-13-acetato (PMA) was added to each well, and the cells were incubated for 48 h at 37 °C with 5% CO2. After the 48 h, the wells were washed with 1X PBS, and fresh RPMI-1640 media was added. The cells were then incubated for 24 h at 37 °C and 5% CO2. For the cell’s stimulations, after the 24 h, the well was washed with PBS and fresh RPMI1640 media without fetal bovine serum added. For the positive controls of the assay, 3 wells were stimulated with LPS (1 ng/µL) diluted in the same volume and media used for the drugs stimulation. Two different concentrations (2 and 4 µg/mL) were evaluated for each molecule, which were determined to be non-cytotoxic through a cell viability assay. After a 24 h period, the supernatant was removed and used in the cytokine quantification assay. A kit for inflammatory cytokines, BD® Cytometric Bead Array CBA Human Inflammatory, was employed for this assay, containing the following human cytokines: IL-8, IL-1β, IL-6, and TNF. […]

Data set [3] in a line: Parallel artificial membrane permeability assay (PAMPA). In kind it is in vitro ADME. How it is done: The parallel artificial membrane permeability assay (PAMPA) was performed using a 96-well pre-coated PAMPA plate system (Corning, Bedford, MA, USA). Solutions of test compounds and controls [metoprolol (Sigma-Aldrich, St. Louis, MO, USA) and nadolol (Sigma-Aldrich, St. Louis, MO, USA)] were prepared by diluting 10 mM stock solutions in DMSO with phosphate-buffered saline (PBS) at pH 6.5 to obtain a final concentration of 10 μM (final DMSO concentration ≤ 1%). The donor compartment was loaded with 300 μL of the prepared compound solutions, while the acceptor compartment received 200 μL of PBS pH 7.4. The plate was then assembled, and the system was incubated at 37 °C, with shaking at 100 rpm for 5 h. Samples of the initial donor solution (T0) were collected (10 μL) and transferred to an analysis plate. A quenching solution [10% water and 90% methanol: acetonitrile (50:50) + 50 nM tolbutamide (Sigma-Aldrich, St. Louis, MO, USA) as internal standard] was added (300 μL), along with 60 μL of PBS buffer pH 6.5. The analysis plate was stored at −20 °C. At the end of the incubation period, samples were collected from the donor and acceptor compartments and added to the analysis plate, following the same quenching procedure. The final concentrations of the compounds in the donor, acceptor, and T0 wells were quantified by an LCMS-8045 system (Shimazu, Kyoto, Japan). […]
Background: PAMPA measures passive passage across an artificial lipid membrane.

A short description of data set [4]: Distribution coefficient (eLogD) by HPLC retention time. In kind it is physicochemical. As to conditions: Supelco Ascentis Express RP Amide column, pH 7.4, read-out: LogD7.4. The protocol: The determination of the experimental distribution coefficient (eLogD) was based on the retention time of molecules in the stationary phase using high-performance liquid chromatography (HPLC). Chromatographic analysis was performed on a Supelco Ascentis Express RP Amide HPLC column (5 cm × 2.1 mm, 2.7 μm), with a binary gradient mobile phase consisting of (A) 5% methanol in 10 mM ammonium acetate pH 7.4 and (B) 100% methanol. The mobile phase was eluted as follows: 0 min, 95% A; 0.3 min, 100% A; 5.2 min, 0% A; 5.6 min, 0% A; 5.8 min, 100% A; 7.0 min, 100% A. The total run time was 7 min, with a sample injection volume of 5 μL. Test compounds were prepared by diluting stock solutions (1.0 mg/mL in DMSO) in a mixture of mobile phases A:B (1:1 v/v) containing an internal standard (200 nM), achieving a final concentration of 1.0 μg/mL (final DMSO concentration ≤ 1%). The prepared solutions were transferred to a 96-well plate in duplicate, which was then sealed and introduced into the autosampler for analysis. […]. These reference and control compounds were injected at the beginning and end of the experimental procedure. A calibration graph was obtained by plotting the retention times of the reference compounds against their respective LogD values. The resulting equation (y = mx + b) was used to calculate the eLogD7.4 values for the test compounds and controls. […]

Molecules are shown by their SMILES.

`COc1cccc(C(=O)/C=C/c2cccc(B(O)O)c2)c1` [Compound 5, (E)-(3-(3-(3-methoxyphenyl)-3-oxoprop-1-en-1-yl)phenyl)boronic acid]: the IC50 in data set [1] was determined as 2160 ± 310 nM. Moreover, the “reduction of IL-1β levels” value in data set [2] is “comparable efficacy in reducing cytokine levels relative to LPS-stimulated cells”. Also, in data set [3], the permeability class entry is given as “high passive permeability”. Besides, the Papp at 5 h, 10 μM in data set [3] (donor pH 6.5, acceptor pH 7.4, 5 h, 37 °C, read-out: PAMPA (Mean Pe)) came to 17.5 ×10⁻⁶ cm/s. The chromatographic logD in data set [4] came out at 3.92.
